Assays:
AMP kinase = experiment: Measurement of AMP kinase phosphorylation activity (Western blot pAMPK/tAMPK) in C2C12 cells; format: cell-based, mouse; conditions: Test Example 1-1; positive control, final concentration 2 mM; relative value, negative control = 1
Experimental: Persimmon leaf extracts A to E (powders) that had been dissolved in media to a final concentration of 0.02% were used as samples (Examples 1-1 to 1-5). A medium without any addition was used as a negative control (Comparative Example 1-1). A medium containing AICAR (final concentration: 2 mM) was used as a positive control (Comparative Example 1-2). Subsequently, a mouse skeletal myotube cell line (C2C12 cells) was seeded onto a 6-well cell culture plate and cultured in a DMEM medium containing 10% fetal bovine serum and a 1% antibacterial agent at 37° C., 5% carbon dioxide for 3 days.
When the cells became confluent, the medium was replaced with a DMEM medium containing 1% fetal bovine serum, and the cells were further cultured and fully differentiated. After the medium was again replaced with a fresh medium, the samples of Examples 1-1 to 1-5 and Comparative Examples 1-1 to 1-2 were added, and the cells were cultured at 37° C., 5% carbon dioxide. […]
The cell lysate was sonicated and then centrifuged to obtain a supernatant. […] The protein concentration of each supernatant was measured. […]
Western blotting was performed in the following manner. […] Chemiluminescence was detected using a CCD camera imager (produced by GE Healthcare). The degree of the activity was expressed as a relative value with the value of the negative control being defined as 1.

[1] = system: mouse skeletal myotube cell line (C2C12 cells); experiment: Measurement of sugar uptake-promoting activity (6-NBDG uptake) using skeletal myotube cells; format: cell-based; conditions: for sugar uptake-promoting activity (in words): 0.01 mass %, compared with extract C
Experimental: Mouse skeletal myoblasts (C2C12 cells) were cultured in high-glucose DMEM (5790), and the cells were seeded and cultured in a black microtiter plate (produced by Falcon) at a concentration of 5000 cells/200 μL/well. The cells differentiated into myotubes were used for this experiment. Extract A and extract C obtained in the above Production Example 1 and adjusted to final concentrations of 0.02% and 0.05% were used as samples (Examples 2-1 to 2-4). A medium without any addition (Comparative Example 2-1) was used as a negative control. A medium containing insulin (10 nM) (Comparative Example 2-2) was used as a positive control.
On the day of the experiment, after the media were replaced with low-glucose DMEM (6047), starvation was performed. The media were then replaced with media containing the samples of Examples 2-1 to 2-4 and Comparative Examples 2-1 to 2-2 dissolved therein, and incubation was performed for 60 minutes. After the treatment, the media were removed and replaced with low-glucose DMEM containing 100 μM of a fluorescently labeled nonhydrolyzable sugar analog, 6-(N-(7-nitrobenz-2-oxa-1,3-diazol-4-yl)amino)-6-deoxyglucose (6-NBDG; produced by Invitrogen) dissolved therein. After the reaction was allowed to proceed for 30 minutes, the medium was removed. After washing with PBS, the fluorescence was measured at 444 nm/538 nm emission using a fluorescent plate reader.
The sugar uptake-promoting activity, in skeletal myotube cells, of each of extract C (Example 3-1) obtained in the above Production Example 1, and fractions A to C and insoluble matter (Example 3-5) obtained in the above Production Example 2 (Examples 3-2 to 3-4) was measured in the same manner as in Test Example 1-2. Further, as in Test Example 1-2, a medium with no addition was used as a negative control (Comparative Example 3-1), and a medium containing insulin (10 nM) (Comparative Example 3-2) was used as a positive control. The samples of Examples 3-1 to 3-5 were adjusted to a final concentration of 0.02 mass %.
The sugar uptake-promoting activity, in skeletal myotube cells, of extract C obtained in the above Production Example 1 (Example 4-1) and seven compounds known to be contained in persimmon leaves (Example 4-2 to 4-8), i.e., kaempferol-3-O-glucoside, quercetin-3-O-glucoside, quercetin-3-O-galactoside, (+)-catechin, epigallocatechin gallate, rutin, and gallic acid was measured in the same manner as in Test Example 1-2. Further, as in Test Example 1-2, a medium with no addition was used as a negative control (Comparative Example 4-1), and a medium with insulin (10 nM) was used as a positive control (Comparative Example 4-2). The samples obtained in Example 4-1 to 4-8 were adjusted to a final concentration of 0.01 mass %.
The sugar uptake-promoting effects of extract C obtained in the above Production Example 1 (Example 5-1), fraction B obtained in the above Production Example 2 (Example 5-2), and fractions F to L (Examples 5-3 to 5-9) obtained in the above Production Example 3 on skeletal myotube cells were measured in the same manner as in Test Example 2. A medium with no addition was used as a negative control (Comparative Example 5-1), and media with insulin (10 nM) (Comparative Example 5-2), with insulin (100 nM) (Comparative Example 5-3), and with AICAR (final concentration: 3 mM) (Comparative Example 5-4) were used as positive controls. The samples of Examples 5-1 to 5-9 were adjusted to a final concentration of 0.02 mass %. […]

[2] = Test Example 3, final concentration 0.01 mass %, control = 1.00

Molecule | Relative fluorescence intensity [1, 2] | sugar uptake-promoting activity (in words) ([1]; Test Example 3) | also measured
NC(=O)c1ncn([C@@H]2O[C@H](CO)[C@@H](O)[C@H]2O)c1N [AICAR] | – | – | pAMPK/tAMPK ratio (AMP kinase): 5.60; Relative fluorescence intensity ([1]; Test Example 4, positive control 3 mM, control = 1.00): 1.96
O=c1c(O[C@@H]2O[C@H](CO)[C@@H](O)[C@H](O)[C@H]2O)c(-c2ccc(O)cc2)oc2cc(O)cc(O)c12 [Kaempferol-3-glucoside, kaempferol-3-O-glucoside] | 0.91 | – | –
C[C@@H]1O[C@@H](OC[C@H]2O[C@@H](Oc3c(-c4ccc(O)c(O)c4)oc4cc(O)cc(O)c4c3=O)[C@H](O)[C@@H](O)[C@@H]2O)[C@H](O)[C@H](O)[C@H]1O [Rutin, rutin] | 0.91 | – | –
O=c1c(O[C@@H]2O[C@H](CO)[C@@H](O)[C@H](O)[C@H]2O)c(-c2ccc(O)c(O)c2)oc2cc(O)cc(O)c12 [Quercetin-3-glucoside, quercetin-3-O-glucoside] | 2.26 | as high as Example 4-1 | –
O=C(O)c1cc(O)c(O)c(O)c1 [Gallic acid, gallic acid] | 1.69 | as high as Example 4-1 | –
O=c1c(O[C@@H]2O[C@H](CO)[C@H](O)[C@H](O)[C@H]2O)c(-c2ccc(O)c(O)c2)oc2cc(O)cc(O)c12 [Quercetin-3-galactoside, quercetin-3-O-galactoside] | 0.70 | – | –
insulin | – | – | Relative fluorescence intensity ([1]; Test Example 1-2, positive control 10 nM, no addition = 1.00): 1.32; Relative fluorescence intensity ([1]; Test Example 2, positive control 10 nM, no addition = 1.00): 1.25; Relative fluorescence intensity ([1]; Test Example 3, positive control 10 nM, control = 1.00): 1.43; Relative fluorescence intensity ([1]; Test Example 4, positive control 10 nM, control = 1.00): 1.62; Relative fluorescence intensity ([1]; Test Example 4, positive control 100 nM, control = 1.00): 1.74
Oc1cc(O)c2c(c1)O[C@H](c1ccc(O)c(O)c1)[C@@H](O)C2 [(+)-catechin] | 1.09 | – | –
O=C(O[C@@H]1Cc2c(O)cc(O)cc2O[C@@H]1c1cc(O)c(O)c(O)c1)c1cc(O)c(O)c(O)c1 [Epigallocatechin gallate, epigallocatechin gallate] | 1.70 | as high as Example 4-1 | –
